From article PMC10180155, “Thieno-Thiazolostilbenes, Thienobenzo-Thiazoles, and Naphtho-Oxazoles: Computational Study and Cholinesterase Inhibitory Activity” (Molecules, 2023)

Key:
[1] = target: T1, BChE (EC 3.1.1.8, equine serum) (Equus caballus, UniProt P81908); experiment: biochemical; type: biochemical; details: for Inhibition (%) BChE: concentration for the maximal effect measured
T1 construct: BChE (EC 3.1.1.8, equine serum); purchased Sigma-Aldrich; host or cells: equine serum
Experimental: (§1) AChE and BChE inhibition were determined using a modified spectrophotometric Ellman’s method. Acetylthiocholine iodide (ATChI), S-butyrylthiocholine iodide (BTChI), AChE (EC 3.1.1.7, Electrophorus electricus, Type: V-S), BChE (EC 3.1.1.8, equine serum), and Trisma base were purchased from Sigma-Aldrich (St. Louis, MO, USA), while Ellman’s reagent 5,50-dithiobis-(2-nitrobenzoic acid) (DTNB) was purchased from Zwijndrecht (Antwerpen, Belgium). The reaction mixture contained 180 µL Tris-HCl buffer (50 mM, pH 8.0) or phosphate buffer, 10 µL of the enzyme (final concentration 0.03 U/mL), 10 µL of the tested solution, and 10 μL of DTNB (final concentration 0.3 mM). The reaction started with adding 10 μL of ATChI/BTChI (final concentration of 0.5 mM). The developing yellow color was measured at 405 nm over 6 min at room temperature using a 96-well microplate reader (IRE 96, SFRI Medical Diagnostics, Bordeaux, France). The experiment was run in triplicate. The percentage of enzyme inhibition was calculated from measured data according to the equation: Inhibition (%) = [(Ac − AT)/A.C.]∙100, where A.C. is the enzyme activity without the test sample, and AT is the enzyme activity with the test sample, calculated as mean values ± standard deviation. In the control measurement, the tested compound was replaced by a buffer solution. Non-enzymatic hydrolysis was measured as blank for each measurement. The IC50 value was calculated by a nonlinear fit of compound concentration (log) values vs. response.

[2] = target: T2, AChE (EC 3.1.1.7, Electrophorus electricus, Type: V-S) (Electrophorus electricus, UniProt O42275); experiment: AChE inhibition, modified spectrophotometric Ellman's method; type: biochemical
T2 construct: purchased Sigma-Aldrich Type: V-S
T2 sequence (O42275 24-633): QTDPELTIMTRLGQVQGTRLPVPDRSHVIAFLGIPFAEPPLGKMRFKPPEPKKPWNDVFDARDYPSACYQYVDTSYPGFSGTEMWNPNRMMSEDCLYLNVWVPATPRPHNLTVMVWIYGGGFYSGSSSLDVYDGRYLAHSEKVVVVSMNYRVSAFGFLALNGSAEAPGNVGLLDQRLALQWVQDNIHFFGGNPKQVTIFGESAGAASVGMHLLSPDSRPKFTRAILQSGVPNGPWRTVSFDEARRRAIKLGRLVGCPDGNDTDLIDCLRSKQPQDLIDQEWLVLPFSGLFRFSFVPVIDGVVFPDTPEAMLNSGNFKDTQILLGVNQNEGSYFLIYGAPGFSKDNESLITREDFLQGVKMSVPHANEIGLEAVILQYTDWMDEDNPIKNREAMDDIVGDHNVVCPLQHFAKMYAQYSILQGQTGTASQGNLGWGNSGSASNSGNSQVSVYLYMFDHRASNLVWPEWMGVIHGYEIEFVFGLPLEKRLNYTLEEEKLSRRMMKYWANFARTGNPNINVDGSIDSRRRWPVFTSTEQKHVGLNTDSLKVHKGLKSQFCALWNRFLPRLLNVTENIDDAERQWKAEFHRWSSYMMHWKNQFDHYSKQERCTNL
Experimental: as §1, with “The experiment was run in triplicate.” left out, “In the control measurement, the tested compound was replaced by a buffer solution.” left out

[3] = Solubility as observed in the cholinesterase measurements; type: physicochemical; details: did not allow measurements at higher concentrations
Excerpt: Tested compounds were active only toward BChE, and the results are presented in Table 2 and Figure 8 and Figure 9. Among stilbene derivatives, the best result is achieved by the derivative with a phenolic ring trans-8a and the thiophene derivative trans-1a (Table 2, Figure 9). […] Replacement of phenol from trans-8a with thiophene in trans-1a reduces the IC50 value by seven times. Replacing the methyl group from trans-1a with an isopropyl group in trans-2a (along with the inversion of the sulfur and nitrogen position) also reduces the activity. Furthermore, a change in geometry from trans-1a to cis-1a also diminished inhibitory activity, as was observed earlier.

T1 sequence (P81908 whole entry): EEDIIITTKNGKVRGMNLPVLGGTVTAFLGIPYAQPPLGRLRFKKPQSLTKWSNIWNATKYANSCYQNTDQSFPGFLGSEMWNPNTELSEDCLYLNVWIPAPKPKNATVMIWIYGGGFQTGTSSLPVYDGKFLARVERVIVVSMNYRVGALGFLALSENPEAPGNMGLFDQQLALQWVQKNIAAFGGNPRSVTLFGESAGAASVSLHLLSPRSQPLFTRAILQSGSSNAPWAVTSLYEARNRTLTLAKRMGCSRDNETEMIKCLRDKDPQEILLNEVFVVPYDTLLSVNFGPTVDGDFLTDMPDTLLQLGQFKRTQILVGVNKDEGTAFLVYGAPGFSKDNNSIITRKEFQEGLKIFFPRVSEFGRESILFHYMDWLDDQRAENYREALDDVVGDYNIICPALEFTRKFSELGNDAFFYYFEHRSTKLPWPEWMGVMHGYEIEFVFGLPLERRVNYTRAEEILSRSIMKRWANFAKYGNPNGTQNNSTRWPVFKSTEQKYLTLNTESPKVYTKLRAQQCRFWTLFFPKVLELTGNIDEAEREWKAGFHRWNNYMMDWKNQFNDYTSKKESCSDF

Compound: CC(=O)Nc1ncc(C=Cc2cccs2)s1 (mixture of isomers) [Compound 5a, N-(5-(2-(thiophen-2-yl)vinyl)thiazol-2-yl)acetamide]
- inhibitory activity toward BChE (in words) [1]: ineffective inhibitors
- inhibition at 250 µM ([1]; read-out: Inhibition (%) BChE): 30.6%

Compound: Cc1nc2c(ccc3sccc32)s1 [Compound 1, 2-methylthieno[2′,3′:5,6]benzo[1,2-d]thiazole]
- IC50 [1]: 107 µM
- inhibition at 500 µM ([1]; read-out: Inhibition (%) BChE): 79.1%

Compound: CC(C)c1nc2ccc3sccc3c2s1 [Compound 2, 2-isopropylthieno[3′,2′:3,4]benzo[1,2-d]thiazole]
- inhibition at 200 µM ([1]; read-out: Inhibition (%) BChE): 46.8%

Compound: Clc1nc2c(ccc3sccc32)s1 [Compound 3, 2-chlorothieno[2′,3′:5,6]benzo[1,2-d]thiazole]
- IC50 [1]: 51.1 µM
- inhibition at 250 µM ([1]; read-out: Inhibition (%) BChE): 75.4%

Compound: FC(F)(F)c1nc2c(ccc3sccc32)s1 [Compound 4, 2-(trifluoromethyl)thieno[2′,3′:5,6]benzo[1,2-d]thiazole]
- IC50 [1]: 41.9 µM
- inhibition at 200 µM ([1]; read-out: Inhibition (%) BChE): 70.8%

Compound: CC(=O)Nc1nc2c(ccc3sccc32)s1 [Compound 5, N-(thieno[2′,3′:5,6]benzo[1,2-d]thiazol-2-yl)acetamide]
- inhibition at 250 µM ([1]; read-out: Inhibition (%) BChE): 24.9%

Compound: c1ccc2c(c1)ccc1ncoc12 [Compound 11]
- inhibition at 188 µM ([1]; read-out: Inhibition (%) BChE): 0.9%

Compound: N#Cc1cccc2c1ccc1ncoc12 [Compound 12]
- inhibition at 176 µM ([1]; read-out: Inhibition (%) BChE): 40.9%

Compound: Cc1cccc2c1ccc1ncoc12 [Compound 13]
- IC50 [1]: 351 µM
- inhibition at 396.8 µM ([1]; read-out: Inhibition (%) BChE): 57.8%

Compound: Cc1ccc2ccc3ncoc3c2c1 [Compound 14]
- IC50 [1]: 155 µM
- inhibition at 173.6 µM ([1]; read-out: Inhibition (%) BChE): 63.3%

Compound: Cc1ccc2ccc3nc(C)oc3c2c1 [Compound 15]
- IC50 [1]: 44.4 µM
- inhibition at 368.6 µM ([1]; read-out: Inhibition (%) BChE): 98.3%

Compound: O=[N+]([O-])c1ccc2ccc3ncoc3c2c1 [Compound 16]
- IC50 [1]: 137 µM
- inhibition at 201.7 µM ([1]; read-out: Inhibition (%) BChE): 64.9%
- IC50 [2]: 131 µM
- inhibition at 201.7 µM ([2]; read-out: % of inhibition AChE): 63.8%

Compound: Cc1nc2ccc3ccc([N+](=O)[O-])cc3c2o1 [Compound 17]
- inhibition at 159.5 µM ([1]; read-out: Inhibition (%) BChE): 16.8%

Compound: COc1ccc2ccc3ncoc3c2c1 [Compound 18]
- inhibition at 273.6 µM ([1]; read-out: Inhibition (%) BChE): 38%

Compound: COc1ccc2ccc3nc(C)oc3c2c1 [Compound 19]
- IC50 [1]: 170 µM
- inhibition at 405.2 µM ([1]; read-out: Inhibition (%) BChE): 81.9%

Compound: CN(C)c1ccc2ccc3ocnc3c2c1 [Compound 20]
- IC50 [1]: 184 µM
- inhibition at 364.2 µM ([1]; read-out: Inhibition (%) BChE): 82.2%

Compound: Clc1ccc2ccc3ocnc3c2c1 [Compound 21]
- inhibition at 312.3 µM ([1]; read-out: Inhibition (%) BChE): 32.6%

Compound: Fc1ccc2ccc3ocnc3c2c1 [Compound 22]
- IC50 [1]: 128 µM
- inhibition at 315.8 µM ([1]; read-out: Inhibition (%) BChE): 69.9%

Compound: Cc1cccc2c1ccc1ocnc12 [Compound 23]
- inhibition at 297.5 µM ([1]; read-out: Inhibition (%) BChE): 20.6%

Compound: Clc1ncc(/C=C/c2cccs2)s1 [trans-3a, (E)-2-chloro-5-(2-(thiophen-2-yl)vinyl)thiazole]
- inhibitory activity toward BChE (in words) [1]: ineffective inhibitors
- inhibition at 250 µM ([1]; read-out: Inhibition (%) BChE): 10%

Compound: CCC(C)Nc1ncc(/C=C/c2cccs2)s1 (stereo not drawn) [trans-9a, (E)-N-(sec-butyl)-5-(2-(thiophen-2-yl)vinyl)thiazol-2-amine]
- inhibition at 100 µM ([1]; read-out: Inhibition (%) BChE): 47.7%
- solubility (in words) [3]: limited solubility

Compound: Clc1nc(N2CCCC2)sc1/C=C/c1cccs1 [trans-10a, (E)-4-chloro-2-(pyrrolidin-1-yl)-5-(2-(thiophen-2-yl)vinyl)thiazole]
- inhibition at 100 µM ([1]; read-out: Inhibition (%) BChE): 25.3%
- solubility (in words) [3]: limited solubility

Compound: (E)-2-(2-(2-methylthiazol-5-yl)vinyl)phenol [trans-8a]
- IC50 [1]: 25.2 µM
- Inhibition (%) BChE ([1]; 250 μM): 80.5 (250) %

Compound: (E)-2-isopropyl-5-(2-(thiophen-2-yl)vinyl)thiazole [trans-2a]
- Inhibition (%) BChE ([1]; 250 μM): 45.8 (250) %

Compound: (E)-2-methyl-5-(2-(thiophen-2-yl)vinyl)thiazole [trans-1a]
- IC50 [1]: 181 µM
- Inhibition (%) BChE ([1]; 500 μM): 64.0 (500) %

Compound: (Z)-2-isopropyl-5-(2-(thiophen-2-yl)vinyl)thiazole [cis-2a]
- Inhibition (%) BChE ([1]; 250 μM): 45.5 (250) %

Compound: (Z)-2-methyl-5-(2-(thiophen-2-yl)vinyl)thiazole [cis-1a]
- inhibitory activity toward BChE (in words) [1]: ineffective inhibitors
- Inhibition (%) BChE ([1]; 500 μM): 36.4 (500) %
